In PubChem BioAssay (NCI):
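How tested: cells in 96-well plates exposed to compound for 48 hours at five concentrations. At the TGI there is no net growth.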

Assays:
Experiment in all cases: NCI tumour cell line growth inhibition, 48 h
DMS 114 small cell lung = test system: DMS 114 small cell lung
KM20L2 colon = test system: KM20L2 colon
M19-MEL melanoma = test system: M19-MEL melanoma
SNB-78 CNS = test system: SNB-78 CNS
XF 498 CNS = test system: XF 498 CNS
P388 leukemia = test system: P388 leukemia
P388/ADR leukemia = test system: P388/ADR leukemia
SN12K1 renal = test system: SN12K1 renal
RXF-631 renal = test system: RXF-631 renal

CCCCOC(=O)CNC(=O)OCCCCC#CC#CCCCCOC(=O)NCC(=O)OCCCC
TGI (DMS 114 small cell lung): > 100 µM
TGI (KM20L2 colon): > 100 µM
TGI (M19-MEL melanoma): > 100 µM
TGI (SNB-78 CNS): > 100 µM
TGI (XF 498 CNS): > 100 µM

CCCCCc1cc(OC(=O)c2c(O)cc(OC)cc2CCCCC)cc(O)c1C(=O)O
TGI (DMS 114 small cell lung): 33.9 µM
TGI (KM20L2 colon): 33.3 µM
TGI (M19-MEL melanoma): 33.8 µM
TGI (SNB-78 CNS): 57.6 µM
TGI (XF 498 CNS): 32.5 µM

COC1=CC(=O)c2ccccc2C1(CCC=C(C)C)C1=NC(C)(C)CO1 (stereo unspecified)
TGI (KM20L2 colon): > 100 µM
TGI (M19-MEL melanoma): > 100 µM

N/N=C(\C(=O)Nc1c(Cl)cc([N+](=O)[O-])cc1Cl)C(c1cnc2ccc([N+](=O)[O-])cc2n1)[N+](=O)[O-] (stereo unspecified)
TGI (DMS 114 small cell lung): > 100 µM
TGI (KM20L2 colon): > 100 µM
TGI (M19-MEL melanoma): > 100 µM
TGI (SNB-78 CNS): > 100 µM
TGI (XF 498 CNS): > 100 µM

O=C1C(Br)=CC2([N+](=O)[O-])CCNc3c(O)c4c5c(c3C2=C1Br)=NCCC=5C=N4 (stereo unspecified)
TGI (DMS 114 small cell lung): 0.545 µM
TGI (KM20L2 colon): 10.4 µM
TGI (P388 leukemia): 1.14 µM
TGI (P388/ADR leukemia): 2.35 µM
TGI (SN12K1 renal): 14.7 µM
TGI (SNB-78 CNS): 5.48 µM
TGI (XF 498 CNS): 5.48 µM

O=C(c1ccc(Cl)cc1)c1ccc(OCC(=O)N2CCN(c3ccccc3)CC2)cc1
TGI (DMS 114 small cell lung): > 100 µM
TGI (KM20L2 colon): > 100 µM
TGI (M19-MEL melanoma): > 100 µM
TGI (SNB-78 CNS): > 100 µM
TGI (XF 498 CNS): > 100 µM

Cc1ccc(C(=O)N(C2CCCCC2)C2CCCCC2)cc1N=NN(C)C
TGI (M19-MEL melanoma): 34 µM
TGI (SNB-78 CNS): 31.4 µM

CCOC/N=C(/N)NC#N
TGI (DMS 114 small cell lung): > 100 µM
TGI (KM20L2 colon): > 100 µM
TGI (M19-MEL melanoma): > 100 µM
TGI (SNB-78 CNS): > 100 µM
TGI (XF 498 CNS): > 100 µM

COc1cc(OC)c2c(O)cc(CC(C)O)cc2c1 (stereo unspecified)
TGI (DMS 114 small cell lung): > 100 µM
TGI (KM20L2 colon): > 100 µM
TGI (M19-MEL melanoma): > 100 µM
TGI (RXF-631 renal): > 100 µM
TGI (SNB-78 CNS): > 100 µM
TGI (XF 498 CNS): > 100 µM

COC(=O)C12Oc3ccc(-c4ccc5c(c4O)C(=O)C4=CCC(C)C(O)C4(C(=O)OC)O5)c(O)c3C(=O)C1=CCC(C)C2O (stereo unspecified)
TGI (DMS 114 small cell lung): 3.81 µM
TGI (KM20L2 colon): 2.93 µM
TGI (M19-MEL melanoma): 3.63 µM
TGI (RXF-631 renal): 4.81 µM
TGI (SNB-78 CNS): 17.4 µM

COc1ccc2c3c1OC1CC(O)C=CC31CCN(C)C2 (stereo unspecified)
TGI (DMS 114 small cell lung): > 150 µM
TGI (KM20L2 colon): > 150 µM
TGI (M19-MEL melanoma): > 150 µM
TGI (P388 leukemia): > 150 µM
TGI (P388/ADR leukemia): > 150 µM
TGI (SN12K1 renal): > 150 µM
TGI (SNB-78 CNS): > 117 µM
TGI (XF 498 CNS): > 150 µM

CCCC/C=C1\CCC(CN2CCCCC2)C1=O (stereo unspecified)
TGI (DMS 114 small cell lung): 16.1 µM
TGI (KM20L2 colon): 32.9 µM
TGI (M19-MEL melanoma): 34.5 µM
TGI (RXF-631 renal): > 65.2 µM
TGI (SNB-78 CNS): 27.4 µM
TGI (XF 498 CNS): 6.58 µM
